The assay deals with SKOV3-Luc ovarian tumor cells. Format: cell-based, human.

The structures appear in SMILES notation. pIC50: −log10 of the molar value.

The term pIC50 denotes the negative decadic logarithm of the IC50, by convention in mol/L. Read a low pIC50 as a high IC50.

Compound `N.N.[Cl][Pt][Cl]` [cisplatin] showed a pIC50 of 3.64.
